Laboratory results as given in patent US7897620B2, “Methods of using anti-inflammatory compounds” (Cambridge Enterprise Limited, priority 2007, dated 2011).
Like-named read-outs stand apart in the source and are kept apart here.

Legend:
[1] = tested on: LPS-induced TNF-α production; assay: Sub-lethal LPS-induced endotoxemia, serum TNF-α by ELISA; format: in vivo, mouse; settings: for inhibition of LPS-induced TNF-α production: mouse, reference agents, previously shown by applicant, dose not stated
Method: In this assay, mice are given a non-specific pro-inflammatory challenge using bacterial endotoxin (LPS), and the extent of the systemic inflammatory response (measured by serum levels of the central pro-inflammatory cytokine TNF-α, which is essentially absent from the blood under normal conditions, but is rapidly elevated in response to a wide range of inflammatory stimuli).
Mice (in groups of 6) were pretreated with various doses of each compound, either by the subcutaneous route 30 mins prior to LPS challenge, or by the oral route (via gavage) 60 mins prior to LPS. The mice were then challenged with an intraperitoneal injection of 750 μg of bacterial LPS and sacrificed 3 hours later. Serum was prepared from a terminal bleed by cardiac puncture, and the concentration of TNF-α is determined by ELISA (R&D Systems). In each experiment, a group of 6 mice receive no LPS to act as a negative control, and a second group receive only LPS (with no candidate inhibitor). The level of TNF-α in serum from these animals, which received LPS without drug pre-treatment, is arbitrarily set to 100% (and is typically of the order of 6,000 pg/ml, compared with levels of <10 pg/ml among the negative control group). […]

[2] = Pharmacokinetics following a single dose in rat (LC-MS/MS of blood, one-compartment model); format: in vivo; settings: rat, averaged across three rats
Method: Compounds were administered as a single dose (either 1 mg/kg bodyweight in 5% DMSO via the intravenous route or 3 mg/kg in 1% carboxymethylcellulose via the oral route) to three adult rats (using different rats for each compound and each route of administration).
Blood was then sampled at various time points (including just prior to dose administration) out to 24 hrs post dose, and the level of the various compounds was assessed using a validated LC-MS/MS assay. Briefly, 3-5 μl of the deproteinised sample was applied to a Waters Atlantis (C18 20×2.1 mm, 3 μm bead size) reverse phase chromatography column equilibrated in 0.1% formic acid in 95:5 water:actetonitrile. Over 3.5 minutes bound material was gradient eluted reaching 0.1% formic acid in 5:95 water:acetonitrile, followed by a step gradient back to 0.1% formic acid in 95:5 water:acetonitrile. The column eluent was then directed to an Applied Biosystems API 4000/3200 QTrap MS/MS mass spectrometer, with a Turbolonspray™ ion source operating in positive ion mode. The interface temperature was set at 650° C., with a 40 ms dwell time for each MRM transition, monitoring the following ions:
The internal standard in each determination was the related compound (S)-3-(2′,2′-dimethylpropanoylamino)-caprolactam, which was spiked into the sample prior to deproteinization. The lower limit of quantitation (LLOQ) for this assay was 2.4 ng/ml for each compound except (I′), where it was 38.1 ng/ml.
Following LC-MS/MS analysis of each collected sample, the pharmacokinetic disposition of the compound was modelled using Kinetica software, a well known software package for such applications.

[3] = Identification of the primary metabolites in pooled 24 h urine (LC-MS-MS full scan); format: in vivo; settings: rat, single oral dose 3 mg/kg in 1% CMC, qualitative
Method: Urine was collected from rats exposed to a single oral dose (3 mg/kg in 1% CMC) of each compound over a 24 hour period in metabolic cages. The pooled urine sample was then subjected to full scan mass spectral analysis, using the same LC-MS conditions as described in example 1 above. Further MS-MS analysis of the product ions was then performed, and likely fragmentations/re-arrangements assigned from the publicly available Metabolite ID database.
For the major metabolites, the assigned structures were confirmed by synthesis of authentic samples, using methods well known in the art, which were subject to LC-MS-MS analysis under the same conditions as the urine samples.
Note that metabolite ID studies provide only qualitative estimates of the relative amounts of the different metabolites present, and separately validated assays with appropriate internal standards would be required to quantitate each metabolite species.
The detected metabolites, in rank order of concentration detected are shown in FIG. 2 for the five compounds analysed. It is important to note that the methodology used here is not necessarily exhaustive, and further (particularly minor) metabolites may also be present which were below the detection limits for the methods applied here. As a general rule, it can be assumed that metabolites representing 10% or more of the injected dose will be detected (though not necessarily structurally identified) by the methods used here).

[4] = tested on: S. Typhinurium (TA 102, TA98 and TA 100); assay: AMES test, revertant colony formation; format: cell-based
Method: The five compounds were subjected to a standard AMES test to assess likely genotoxicity. Three His-auxotroph strains of S. Typhinurium (TA 102, TA98 and TA 100) were treated with each of the compounds at 5 concentrations (up to 5 mg/ml) in the presence and absence of S9 rat liver microsomal metabolising system. The number of revertant colonies was then determined by plating on trace-His minimal media.

[5] = tested on: MCP-1 induced THP-1 cell migration; assay: ChemoTx transwell migration assay, MCP-1 induced migration of THP-1 cells; format: cell-based; settings: Homo sapiens
Method: In principle, this assay consists of two chambers separated by a porous membrane. The chemoattractant is placed in the lower compartment and the cells are placed in the upper compartment. After incubation for a period at 37° C. the cells move towards the chemoattractant, and the number of cells in the lower compartment is proportional to the chemoattractant activity (relative to a series of controls).
The THP-1 cell line (European Cell Culture Collection) were used as the leukocyte cell population.
First, the cell suspension to be placed in the upper compartment is prepared. The THP-1 cells are pelleted by centrifugation (770×g; 4 mins) and washed with Geys Balanced Salt Solution with 1 mg/ml BSA (GBSS+BSA). This wash is then repeated, and the cells repelleted before being resuspended in a small volume of GBSS+BSA for counting, for example using a standard haemocytometer.
The volume of GBSS+BSA is then adjusted depending on the number of cells present so that the cells are at final density of 4.45×10^6 cells per ml of GBSS+BSA. This ensures that there are […] THP-1 cells in each 25 μl of the solution that will be placed in the upper chamber of the plate.
To test a single compound for its ability to inhibit chemokine induced migration, it is necessary to prepare two lots of cells. The suspension of THP-1 cells at 4.45×10^6 cells/ml is divided into two pots. To one pot the inhibitor under test is added at an appropriate final concentration, in an appropriate vehicle (for example at 1 μM in not more than 1% DMSO). To the second pot an equal volume of GBSS+BSA plus vehicle as appropriate (e.g. not more than 1% DMSO) is added to act as a control.
Next, the chemoattractant solution to be placed in the lower compartment is prepared. For example, MCP-1 is diluted in GBSS+BSA to give a final concentration of 25 ng/ml. This is divided into two pots, as for the cell suspension. To one pot, the test compound is added to the same final concentration as was added to the cell suspension, while to the other pot an equal volume of GBSS+BSA plus vehicle as appropriate (e,g. not more than 1% DMSO) is added. Alternatively, other chemokines may be used (SDF-1α at 7.5 ng/ml; RANTES at 50 ng/ml; IL-8 at 10 ng/ml using neutrophils as the target cell population). In each case it is important to determine (in a separate experiment) the concentration of each chemokine which causes maximal stimulation of migration of the chosen target leukocyte population. This maximal concentration must then be used in experiments to test the inhibitory activity of the compounds of the invention.
Once the chemoattractant solutions for the lower wells and cell solutions for the upper chambers have been prepared, the migration chamber should be assembled. Place 29 μl of the appropriate chemoattractant solution into the lower well of the chamber. Assays should be performed with at least triplicate determinations of each condition. Once all the lower chambers have been filled, apply the porous membrane to the chamber in accordance with the manufacturer's instructions. Finally, apply 25 μl of the appropriate cell solution to each upper chamber. A plastic lid is placed over the entire apparatus to prevent evaporation.
The assembled chamber is incubated at 37° C., 5% CO2, for 2 hours. A suspension of cells in GBSS+BSA is also incubated under identical conditions in a tube: these cells will be used to construct a standard curve for determining the number of cells that have migrated to the lower chamber under each condition.
At the end of the incubation, the liquid cell suspension is gently removed from the upper chamber, and 20 μl of ice-cold 20 mM EDTA in PBS is added to the upper chamber, and the apparatus is incubated at 4° C. for 15 mins. This procedure causes any cells adhering to the underside of the membrane to fall into the lower chamber.
After this incubation the filter is carefully flushed with GBSS+BSA to wash off the EDTA, and then the filter is removed. […]

**Q.** With `O=C1CCC(N2C(=O)c3ccccc3C2=O)C(=O)N1` (centres unmarked) [thalidomide] as the molecule, how does the “inhibition of LPS-induced TNF-α production” value [1] read?
**A.** about 60%

**Q.** For `CC1(C(=O)N[C@H]2CCCCNC2=O)CCCCC1` [(III), 3-(1′-methylcyclohexylcarbonylamino)-caprolactam], which AUC(0-inf) ([2]; blood, single oral dose 3 mg/kg in 1% CMC, read-out: Exposure (AUC 0->infinity) (converted)) is on record?
**A.** 48.3 ng·h/mL

**Q.** And the “F (%) oral bioavailability” value ([2]; 1 mg/kg iv in 5% DMSO and 3 mg/kg oral in 1% CMC, one-compartment model)?
**A.** 5%

**Q.** And the “Vss (L/kg) volume of distribution” value ([2]; one-compartment model)?
**A.** 0.6 L/kg

**Q.** What about the “clearance” value ([2]; one-compartment model) of the same molecule?
**A.** 55 mL/min/kg

**Q.** What about the “t½ (mins) dominant plasma half-life” value ([2]; one-compartment model) of the same molecule?
**A.** 11 min

**Q.** And the “major metabolite / route of metabolism detected in urine” value [3]?
**A.** cytochrome P450-mediated hydroxylation

**Q.** And the “Revertant colony formation TA98 + S9” value ([4]; TA98 with S9, top dose 5 mg/ml)?
**A.** 0.55

**Q.** And the “Revertant colony formation TA98” value ([4]; TA98 without S9, top dose 5 mg/ml)?
**A.** 0.68

**Q.** What about the “Revertant colony formation TA100 + S9” value ([4]; TA100 with S9 rat liver microsomal system, top dose 5 mg/ml) of the same molecule?
**A.** 0.81

**Q.** What about the “Revertant colony formation TA100” value ([4]; TA100 without S9, top dose 5 mg/ml) of the same molecule?
**A.** 0.79

**Q.** And the “Revertant colony formation TA102 + S9” value ([4]; TA102 with S9, top dose 5 mg/ml)?
**A.** 0.88

**Q.** And the “Revertant colony formation TA102” value ([4]; TA102 without S9, top dose 5 mg/ml)?
**A.** 0.69

**Q.** What about the EC50 ([5]; THP-1 cells, maximal dose of chemoattractant, read-out: ED50 MCP-1) of the same molecule?
**A.** 0.08 nM

**Q.** And the EC50 ([5]; THP-1 migration inhibition, Table 5, read-out: Functional ED50 versus MCP-1)?
**A.** 0.08 nM

**Q.** With `C=CCCCCCCCCC(=O)N[C@H]1CCC(=O)NC1=O` [NR58,4] as the molecule, how does the “fold less potent in vivo than 2′,2′-dimethylpropanoylamino)-tetrahydropyridin-2-one” value ([1]; models of acute inflammation such as LPS-induced endotoxemia) read?
**A.** at least 250 fold

**Q.** For `C[C@@H]1C[C@H]2[C@@H]3CCC4=CC(=O)C=C[C@]4(C)[C@@]3(F)[C@@H](O)C[C@]2(C)[C@@]1(O)C(=O)CO` [dexamethasone], which “inhibition of LPS-induced TNF-α production” value [1] is on record?
**A.** at least 90%
